Experimental data from patent EP0934745B1, “Use of androsterone derivatives for inhibiting DNA binding of ap-1 and airway smooth muscle proliferation” (CHARLOTTE-MECKLENBURG HOSPITAL doing business as Carolinas …, priority 1998, dated 1999).

Tested on: rat tracheal smooth muscle
Test: Proliferation of cultured airway smooth muscle (MTT reduction, cell counts)
Type: cell-based
Conditions: Rattus norvegicus; 50,000 cells/well cultured in 10% FBS for 48 hours; MTT reduction (Figure 3D); read-out: 50% inhibitory concentration
Method: Polyclonal horseradish peroxidase anti-rabbit IgG was from Transduction Laboratories (Lexington, KY). M-MLV reverse transcriptase was from Life Technologies (Gaithersburg, MD). All other materials were obtained from Sigma unless specified. Measurement of Cultured Airway Smooth Muscle Proliferation. Rat tracheal smooth muscle was cultured by euthanizing rats with pentobarbital overdose and removal of their tracheas. The posterior tracheal membrane was isolated, minced and digested twice for 30 minutes at 37°C. in HBSS containing 0.2% type IV collagenase and 0.05% type IV elastase. Each enzyme digest was collected and centrifuged for 5 minutes at 500 g at room temperature. The supernatant was removed and the pellet was resuspended in DMEM supplemented with 10% FBS, nonessential amino acids, penicillin (100 U/ml), streptomycin (100 µg/ml) and amphotericin (250 ng/ml). Cells were seeded in this medium into 25-cm^2 flasks at 2 x 10^5 cells per flask and incubated in a humidified atmosphere of 5% CO2/95% air at 37°C. Upon reaching confluence, cells were detached with 0.25% trypsin-0.002% EDTA solution for passage.
Proliferation of cultured airway smooth muscle was quantitated using modification of a previously reported colorimetric method based upon metabolic reduction of the soluble yellow tetrazolium dye 3-[4,5-dimethylthiazol]-2yl-2,5-diphenyl tetrazolium bromide (MTT) to its insoluble purple formazan by the action of mitochondrial succinyl dehydrogenase. See Hirst, S.J., Barnes, P.J., and Twort, C.H.C., "Quantifying proliferation of cultured human and rabbit airway smooth muscle in response to serum and platelet derived growth factor," Am. J. Respir. Cell Mol. Biol., 7, 574-581 (1992). This assay empirically distinguishes between dead and living cells. For proliferation studies, cells were seeded into 24-well uncoated plastic plates at 15,000-50,000 cells per well and cultured with DMEM and mitogens. After 24-96 hours the medium was replaced with 1 ml/well fresh DMEM containing 100 µg/ml MTT and 0.5% FBS, and plates were incubated an additional hour MTT-containing medium was removed, cells were washed twice with 1 ml of sterile Dulbecco's modified phosphate buffered saline without Ca^2+ or Mg^2+ (DPBS), 0.5 ml dimethylsulfoxide (DMSO) was added to each well, and the absorbance of the solubilized purple formazan dye was measured at 540 nm on a Shimadzu UV160U spectrophotometer. A total of 4-6 wells was studied at each treatment condition.
The optimum concentration of FBS for use as a mitogenic stimulus was determined by incubating 15,000 cells per well with DMEM containing 0.25, 1.0, 5.0 or 10.0% FBS and MTT reduction was determined after 24, 48, 72 or 96 hours. […] After 24 hours, cells were washed twice with DPBS, fixed and permeabilized by two sequential 5 minute exposures to ice-cold methanol, stained with Giemsa-modified Wright's stain for 3 minutes and washed with DPBS. Cell counts were performed on 10 random fields at 40 power using a 0.01-cm^2 ocular grid. Cell Culture Treatments for Measurement of Airway Smooth Muscle Proliferation. The effect of dehydroepiandrosterone (DHEA) and 16α-bromoepiandrosterone (16α-BrEA) on cellular proliferation was studied in cultures stimulated with 0.5-10% FBS or 1-50 ng/ml recombinant human platelet derived growth factor (PDGF-AA). […] See, for example, the method of Le, Y. Y. , and Xu, R.B., "The molecular mechanism of the action of the pharmacological doses of glucocorticoids. Studies on the low-affinity glucocorticoid receptor," Receptor, 5, 63-69 (1995).

C[C@@H]1C[C@H]2[C@@H]3CCC4=CC(=O)C=C[C@]4(C)[C@@]3(F)[C@@H](O)C[C@]2(C)[C@@]1(O)C(=O)CO [dexamethasone, reference compound]
IC50: 10 µM
